Assays:
[1] = system: hen's chlorioallantoic membrane; assay: CAM (Chorio Allantoic Membrane) assay; type: in vivo; settings: for ED50: amount of drug which gave the numerical value 5 (positive rate) in CAM assay; for Positive rate of CAM assay: average neovascularization score (++=10, +=7, °=3, -=0), 3 days on membrane
Procedure: CAM (Chorio Allantoic Membrane) assay was conducted on various compounds of the present invention. The technique of the CAM assay was that modified somewhat on Auerbach's method [Developmental Biology, 41, 391 (1974)]. More specifically, hen's fertile eggs were incubated for three days at 37° C. (Napco carbon dioxide incubator-6300 was employed, CO2 :0% H2 O saturated). Polypropylene-made discs (6 mm. diameter) were spotted with a chloroform:ethanol (1:4 by volume) solution of each compound so that the concentration may be 0, 0.25, 0.64, 1.6, 4, 10 and 25 ug, respectively. The test materials were air-dried in a clean bench, which were then placed quietly on hen's chlorioallantoic membrane, followed by incubation at 37° C. for further three days. Then, the vascularization state was observed. In the tables, the positive rates were calculated on the following basis. Namely, degrees of neovascularization were determined as ++ for very strong, + for strong, ° for weak and - for negative, and they were numerized as 10, 7, 3 and 0, respectively. The average numerical value in each of the concentrations of the respective samples was made as positive rate. Further, the amount of the drug which gave the numerical value 5 in each sample was shown as ED50 value (ug/disc).

[2] = system: cornea; assay: Rat cornea test; type: in vivo, Wister rats; settings: after two weeks; for elongation of blood vessels: rat cornea
From the text: Namely, Wister rats (14-week old, male) were anesthetized, then pockets (about 2×3 mm in size) were provided in the cornea. […] The test samples enveloped were erucamide, lauramide and erucic acid, and, as the control, Elvax®-40 in which nothing was enveloped was used.

[3] = system: dorsal air-sack; assay: Mouse dorsal air-sack method; type: in vivo, ICR mice; design: key to blood vessel elongation action: +, ++; blood vessel elongation action positive; +, ++; blood vessel elongation action positive; -: blood vessel elongation action negative; settings: ten days later; for blood vessel elongation action: 1 mg test sample enveloped in Elvax-40
Procedure: Experimental work was conducted in accordance with the method of Yoshii et al. [Igaku no ayumi, 122 (No. 10), p. 890 (1982)]. More specifically, ICR mice (9-week old, males) were anesthetized, and the hair at the dorsal site was shaved with clippers. The site was sterilized with alcohol, and an injection needle was inserted at the site located at a distance of 1 cm from the tail side. Through the needle, about 20 ml of air was introduced. Then, the air in the air-sack (on the tail side) was drawn out. Test samples enveloped in Elvax®-40 were inserted into both, left and right, sides (at one of the both sides, only Elvax®-40 as the control). The incised site was closed, and, ten days later, the site was incised again and the state of elongation of blood vessel was observed. The test samples enveloped were erucamide, lauramide and erucic acid, and the results compared with one another.

[4] = amount of sample 0.64 μg per disc
[5] = amount of sample 1.6 μg per disc
[6] = amount of sample 10 μg per disc
[7] = amount of sample 25 μg per disc
[8] = 30 μg test material in Elvax-40 gel in corneal pocket

SMILES | ED50 [1] [ug/disc] | Positive rate of CAM assay [1, 4] | Positive rate of CAM assay [1, 5] | Positive rate of CAM assay ([1]; amount of sample 4 μg per disc) | Positive rate of CAM assay [1, 6] | Positive rate of CAM assay [1, 7] | Action of elongation of blood vessel [2, 8] | elongation of blood vessels [2] | blood vessel elongation action [3] | blood vessel elongation ([3]; mouse dorsal air-sack) | Action of elongation of blood vessel ([2]; 60 μg test material in Elvax-40 gel in corneal pocket)
CCCCCCCC/C=C\CCCCCCCCCCCC(N)=O [Erucamide] | 2.13 | 1.4 | 3.4 | 9.4 | 10 | 10 | ++ | strong elongation action | ++ | strong action of blood vessel elongation | 
CCCCCCCC/C=C\CCCCCCCCCCCC(=O)O [Erucic acid] | 4.69 | 1.4 | 2.8 | 4 | 8.2 | 9.4 | ++ | strong elongation action |  |  | 
CCCCCCCCCCCC(N)=O [Lauramide, reference compound] |  | 0.3 | 0.7 | 0 | 0 | 0.3 |  |  | - |  | -
CCCCCCCC/C=C\CCCCCCCCCCCC(=O)N(CCO)CCO [N, N-di-diethanol] | 2.42 | 1.0 | 2.3 | 8.0 | 10 | 10 |  |  |  |  | 
CCCCCCCC/C=C\CCCCCCCCCCCC(=O)N(C)C [N,N-dimethyl] | 5.41 | 0 | 1.5 | 3.3 | 8.5 | 9.3 |  |  |  |  | 
CCCCCCCC/C=C\CCCCCCCCCCCC(=O)NC [N-methyl, N-methyl erucamide] | 2.90 | 0.8 | 2.3 | 7.8 | 10 | 10 |  |  |  |  | 
CCCCCCCC/C=C\CCCCCCCCCCCCCC(=O)O [Nervonic acid] | 2.75 | 1.8 | 2.5 | 7.8 | 9.3 | 8.5 |  |  |  |  | 
CCCCCCCC/C=C\CCCCCCCC(N)=O [Oleamide] | 16.7 | 0 | 0.6 | 0 | 7.8 | 6.8 |  |  |  |  | 
CCCCCCCC/C=C\CCCCCCCC(=O)O [Oleic acid] | 13.7 | 0 | 0.8 | 2.5 | 4 | 7 |  |  |  |  | 
CCCCCCCCCCCCCCCC(N)=O [Palmitamide] | 15.6 | 0 | 0 | 0.3 | 2.4 | 7.7 |  |  |  |  | 
CCCCCCCCCCCCCCCC(=O)O [Palmitic acid] | 14.5 | 0 | 0 | 0 | 3.2 | 7.6 |  |  |  |  | 
CCCCCC[C@@H](O)C/C=C\CCCCCCCC(=O)O [Ricinoleic acid] |  | 0 | 1.8 | 1.2 | 2.6 | 3.2 |  |  |  |  | 
CCCCCCCCCCCCCCCCCC(N)=O [Stearamide] | 2.63 | 0 | 2 | 7.6 | 7.7 | 6.9 |  |  |  |  | 
CCCCCCCCCCCCCCCCCC(=O)O [Stearic acid] | 7.14 | 0 | 0 | 1.8 | 6.8 | 9.4 |  |  |  |  | 
CCCCCCCC/C=C\CCCCCCCCCCCC(=O)NCC(=O)O [carboxymethyl amine] | 6.58 | 0 | 0 | 2.6 | 7.0 | 10 |  |  |  |  | 
CCCCCCCC/C=C\CCCCCCCCCCCC(=O)Nc1cccc(C(=O)O)c1 [m-aminobenzoic acid, N-ercoyl-3-aminobenzoic acid] | 1.28 | 2.0 | 6.0 | 7.4 | 10 | 10 |  |  |  |  | 
CCCCCCCC/C=C\CCCCCCCCCCCC(=O)N1CCC[C@H]1C(=O)OC [proline methylester, N-erucoyl-proline methyl ester] | 4.00 | 0.8 | 2.3 | 5.0 | 7.8 | 10 |  |  |  |  | 
